In US9051612B2, “Compositions and methods for nucleotide sequencing” (Illumina, Inc., priority 2006, dated 2015):

Target: T1, calf intestinal alkaline phosphatase (Bos taurus, UniProt P19111)
T1 construct: purchased USB
Test: Enzymatic removal of 2′ phosphate blocking group with alkaline phosphatase
Type: biochemical
Conditions: aqueous buffer, room temperature

T1 sequence (P19111 20-506): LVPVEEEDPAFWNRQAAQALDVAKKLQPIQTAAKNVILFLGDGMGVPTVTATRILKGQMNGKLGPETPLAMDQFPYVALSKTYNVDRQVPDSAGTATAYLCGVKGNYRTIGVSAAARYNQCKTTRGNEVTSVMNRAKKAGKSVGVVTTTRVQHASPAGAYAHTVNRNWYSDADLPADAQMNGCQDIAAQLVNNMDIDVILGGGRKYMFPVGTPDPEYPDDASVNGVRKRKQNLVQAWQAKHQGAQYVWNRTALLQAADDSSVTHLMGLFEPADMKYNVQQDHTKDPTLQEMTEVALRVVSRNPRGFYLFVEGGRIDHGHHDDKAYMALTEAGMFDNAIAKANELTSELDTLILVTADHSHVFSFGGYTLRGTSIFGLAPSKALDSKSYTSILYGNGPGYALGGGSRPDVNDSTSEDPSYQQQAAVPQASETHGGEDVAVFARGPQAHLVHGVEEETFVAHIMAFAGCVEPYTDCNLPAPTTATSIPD

## O=c1ccn(C2OC(COP(=O)(O)OP(=O)(O)OP(=O)(O)O)C(O)C2OP(=O)(O)O)c(=O)[nH]1 (stereo not shown) [2′ reversible terminator, 2′-phosphate UTP]
  removal of the phosphate blocking group: can be quantitatively removed using alkaline phosphatase in less than one minute
